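Exposure lasted 48 hours, with cells grown in 96-well plates and compounds tested at five concentrations. TGI denotes the concentration required for complete inhibition of growth.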
Experiments:
Test in all cases: NCI tumour cell line growth inhibition, 48 h
HCT-15 colon = test system: HCT-15 colon
OVCAR-3 ovarian = test system: OVCAR-3 ovarian
OVCAR-8 ovarian = test system: OVCAR-8 ovarian
NCI-H522 lung = test system: NCI-H522 lung
HT29 colon = test system: HT29 colon
P388 leukemia = test system: P388 leukemia
EKVX NSCLC = test system: EKVX NSCLC
KM20L2 colon = test system: KM20L2 colon
NCI/ADR-RES ovarian = test system: NCI/ADR-RES ovarian
HL-60(TB) leukemia = test system: HL-60(TB) leukemia
SF-539 CNS = test system: SF-539 CNS
IGROV1 ovarian = test system: IGROV1 ovarian
HOP-18 NSCLC = test system: HOP-18 NSCLC
HCT-116 colon = test system: HCT-116 colon
SNB-19 CNS = test system: SNB-19 CNS
DLD-1 colon = test system: DLD-1 colon
SNB-75 CNS = test system: SNB-75 CNS
P388/ADR leukemia = test system: P388/ADR leukemia
CAKI-1 renal = test system: CAKI-1 renal
K-562 leukemia = test system: K-562 leukemia
HOP-62 NSCLC = test system: HOP-62 NSCLC
LOX IMVI melanoma = test system: LOX IMVI melanoma
DMS 273 small cell lung = test system: DMS 273 small cell lung
SW-620 colon = test system: SW-620 colon
U251 CNS = test system: U251 CNS
MALME-3M melanoma = test system: MALME-3M melanoma
SF-295 CNS = test system: SF-295 CNS
CCRF-CEM leukemia = test system: CCRF-CEM leukemia
NCI-H226 lung = test system: NCI-H226 lung
SN12K1 renal = test system: SN12K1 renal
OVCAR-5 ovarian = test system: OVCAR-5 ovarian
DMS 114 small cell lung = test system: DMS 114 small cell lung
UO-31 renal = test system: UO-31 renal
NCI-H460 lung = test system: NCI-H460 lung
MCF7 breast = test system: MCF7 breast
XF 498 CNS = test system: XF 498 CNS
SN12C renal = test system: SN12C renal
A549 NSCLC = test system: A549 NSCLC
A498 renal = test system: A498 renal
SK-MEL-5 melanoma = test system: SK-MEL-5 melanoma
KM12 colon = test system: KM12 colon
SNB-78 CNS = test system: SNB-78 CNS
UACC-257 melanoma = test system: UACC-257 melanoma
M19-MEL melanoma = test system: M19-MEL melanoma
RXF 393 renal = test system: RXF 393 renal
HCC-2998 colon = test system: HCC-2998 colon
COLO 205 colon = test system: COLO 205 colon
UACC-62 melanoma = test system: UACC-62 melanoma
SK-OV-3 ovarian = test system: SK-OV-3 ovarian
RPMI-8226 leukemia = test system: RPMI-8226 leukemia
SF-268 CNS = test system: SF-268 CNS
SK-MEL-2 melanoma = test system: SK-MEL-2 melanoma

In the case of `CC1[C@@]2(O[C@@H]3C=C4C5CCC6Cc7nc8c(nc7C[C@@]6(C)C5C[C@H](O)[C@@]4(C)[C@]13O)CC1CCc3c(cc4c5c3C(O)C[C@H]5[C@@H](C)C3(O4)OC(C)(C)CC3O)[C@]1(C)C8)O[C@@](C)(CO)C[C@@H]2O` (some centres not stated), the TGI (HCT-15 colon) is reported as > 3.72 µM, the TGI (OVCAR-3 ovarian) is reported as > 3.72 µM and the TGI (OVCAR-8 ovarian) is reported as > 3.72 µM. For the same molecule, the TGI (NCI-H522 lung) was 2.39 µM, the TGI (HT29 colon) was 1.65 µM and the TGI (P388 leukemia) was > 3.72 µM. For the same molecule, the TGI (EKVX NSCLC) was > 3.72 µM, the TGI (KM20L2 colon) was > 3.72 µM and the TGI (NCI/ADR-RES ovarian) was > 3.72 µM. For the same molecule, the TGI (HL-60(TB) leukemia) was > 3.72 µM, the TGI (SF-539 CNS) was > 3.72 µM and the TGI (IGROV1 ovarian) was > 3.72 µM. For the same molecule, the TGI (HOP-18 NSCLC) was > 3.72 µM, the TGI (HCT-116 colon) was > 3.72 µM and the TGI (SNB-19 CNS) was > 3.72 µM. For the same molecule, the TGI (DLD-1 colon) was > 3.72 µM, the TGI (SNB-75 CNS) was 0.372 µM and the TGI (P388/ADR leukemia) was > 3.72 µM. For the same molecule, the TGI (CAKI-1 renal) was > 3.72 µM, the TGI (K-562 leukemia) was > 3.72 µM and the TGI (HOP-62 NSCLC) was 0.263 µM. The TGI (LOX IMVI melanoma) was > 3.72 µM, the TGI (DMS 273 small cell lung) was 0.117 µM and the TGI (SW-620 colon) was 1.1 µM. For the same molecule, the TGI (U251 CNS) was 0.586 µM, the TGI (MALME-3M melanoma) was 2.22 µM and the TGI (SF-295 CNS) was 0.182 µM. The TGI (CCRF-CEM leukemia) was > 3.72 µM, the TGI (NCI-H226 lung) was 2.35 µM and the TGI (SN12K1 renal) was 0.937 µM. For the same molecule, the TGI (OVCAR-5 ovarian) was 1.48 µM, the TGI (DMS 114 small cell lung) was > 3.72 µM and the TGI (UO-31 renal) was > 3.72 µM. For the same molecule, the TGI (NCI-H460 lung) was > 3.72 µM, the TGI (MCF7 breast) was > 3.72 µM and the TGI (XF 498 CNS) was 0.248 µM. The TGI (SN12C renal) was > 3.72 µM, the TGI (A549 NSCLC) was > 3.72 µM and the TGI (A498 renal) was 0.59 µM. The TGI (SK-MEL-5 melanoma) was > 3.72 µM, the TGI (KM12 colon) was > 3.72 µM and the TGI (SNB-78 CNS) was 2.33 µM. The TGI (UACC-257 melanoma) was > 3.72 µM, the TGI (M19-MEL melanoma) was > 3.72 µM and the TGI (RXF 393 renal) was 0.153 µM. The TGI (HCC-2998 colon) was > 3.72 µM, the TGI (COLO 205 colon) was 1.07 µM and the TGI (UACC-62 melanoma) was 0.748 µM. For the same molecule, the TGI (SK-OV-3 ovarian) was 0.976 µM, the TGI (RPMI-8226 leukemia) was 0.21 µM and the TGI (SF-268 CNS) was 2.65 µM. For the same molecule, the TGI (SK-MEL-2 melanoma) was > 3.72 µM.
